Data as given in US20260144769A1, “4-PHENYLBUTYRATE RESTORED GABA UPTAKE AND REDUCED SEIZURES IN SLC6A1 VARIANT-MEDIATED DISORDERS” (Vanderbilt University, priority 2022, published 2026).

How the values were obtained:
wildtype GAT-1 = target: T1, wildtype GAT-1 (Rattus norvegicus, UniProt P23978); test: 3H GABA uptake, HEK293T cells expressing wildtype GAT-1^YFP; assay type: cell-based; settings: for GABA uptake activity vs. wildtype 0: HEK293T, wildtype GAT-1^YFP, normalized to DMSO treated
T1 construct: The coding region of rGAT-1 was inserted into pEYFP-C1 (Clontech, Palo Alto, CA); expressed in transfected cells; host or cells: HEK293T cells (A1); astrocytes from corrected human iPSCs (A21)
Method: GABA uptake activity was measured by the high-throughput 3H radio-labeling GABA uptake on a liquid scintillator with QuantaSmart. […] HEK293T cells were transfected with the wildtype or the mutant GAT-1^YFP cDNAs alone for 48 hr. […] HEK293T cells were transfected with the wildtype GAT-1^YFP alone or in mixture of the wildtype or the mutant cDNAs for 48 hr. In the mixed condition, the ratio of the wildtype GAT-1 with pcDNA or the mutant cDNAs are 1:1 with the total cDNA amount of 0.5 μg. […] Both wt and the mutant were normalized to its own DMSO treated conditions. 966 stands for the wildtype treated with CI-966 (50 μM) while 711 stands for NNC-711 (35 μM). (N=4-7 different transfections. In FIG. 4A and FIG. 4B, *P<0.05, **P<0.01, ***p<0.001 vs. wt 0. In FIG. C and FIG. 4D, *P<0.05, **P<0.01, ***p<0.001 vs. its own DMSO treated. In FIG. 4C, ns stands for no significance. One-way analysis of variance (ANOVA) and Newman-Keuls test. Values were expressed as mean±S.E.M.
The plasmid cDNA encoding enhanced yellow fluorescent protein (EYFP)-tagged rat GAT-1 has been previously described. The coding region of rGAT-1 was inserted into pEYFP-C1 (Clontech, Palo Alto, CA). QuikChange Site-directed Mutagenesis kit was utilized to introduce the GAT-1 variants into a wildtype GAT-1 plasmid. The product was then amplified via polymerase chain reaction, transformed using DH5a competent cells, and plated. A clone was chosen and grown overnight. All the GAT-1 variants were confirmed by DNA sequencing. Both the wildtype and the variant cDNAs were prepared with Qiagen Maxiprep kit.
Human embryonic kidney cells were cultured as monolayers in 100 mm^2 dishes. Cells were cultured in Dulbecco's Modified Eagle's Medium supplemented with 10% FBS and 1% penicillin/streptomycin in 37° C. in 5% CO2/95% air. Cells were maintained in culture medium until appropriate confluency for experimentation.
Briefly, cells were cultured in […] dishes for 3 days before the GABA uptake experiment in DMEM with 10% fetal bovine serum and 1% penicillin/streptomycin. The cells were then transfected with equal amounts of the wildtype or the mutant GAT-1 cDNAs (1 μg) for each condition at 24 hrs or 48 hrs after plating. GABA uptake assay was carried out 48 hrs after transfection. The cells were incubated with preincubation solution for 15 min and then incubated with preincubation solution containing 1 μci/mL 3H GABA and 10 μM unlabeled GABA for 30 min at room temperature. After washing, the cells were lysed with 0.25 N NaOH for 1 hr. Glacial acetic acid was added, and lysates were then determined on a liquid scintillator with QuantaSmart. The flux of GABA (pmol/μg/min) was averaged with at least triplets for each condition at each transfection. The average counting was taken as n=1. […]

GAT-1 [1] = test: GAT-1 protein expression (SDS-PAGE, anti-GAT-1 blot), patient human astrocytes; assay type: cell-based; settings: PBA 2 mM
Method: FIGS. 6A-B show human patient corrected (isogenic control, Corr) or uncorrected patient (Pat) astrocytes at day 30-35 after differentiation from iPSCs were co-transfected with the endoplasmic reticulum (ER) marker ER^CFP in combination with the wildtype or the mutant GAT-1^YFP cDNAs (0.5 μg: 0.5 μg per a 35 mm^2 dish) for 48 hrs before confocal microscopy analysis. Confocal images were acquired in live astrocytes under 63× objective with zoom under 2.5×. […] FIG. 6B represents the ER overlapping signal of GAT-1^YFP analyzed by Metamorph. […] Membranes were blotted with a rabbit polyclonal anti-GAT-1 antibody (FIG. 6C). The lysates of Chinese hamster ovary (CHO) cells were used as control. […] Values were expressed as mean±S.E.M.). […]
Data were expressed as mean±SEM. Proteins were quantified by Odyssey software and data were normalized to loading controls and then to the wildtype subunit protein, which was arbitrarily taken as 1 in each experiment. Fluorescence intensities from confocal microscopy experiments were determined using MetaMorph imaging software, and the measurements were carried out in ImageJ. […]

GAT-1 [2] = test: GAT-1 protein expression in brain regions of SLC6A1^+/S295L heterozygous mice; assay type: in vivo, mouse; settings: S295L het; cerebellum; PBA 100 mg/kg, 7 days
Excerpt: FIGS. 8C-D show integrated density values (IDVs) for total GAT-1 from wild-type and het KI were normalized to the Na^+/K^+ ATPase or anti-glyceraldehyde-3-phosphate dehydrogenase (GAPDH) loading control (LC) in each specific brain region and plotted. N=4 from 4 pairs of mice. […] The vehicle treated in each brain region was taken as 1. N=4 from 4 pairs of mice for FIG. 8C, FIG. 8D, FIG. 8G and FIG. 8H, Values were expressed as mean±S.E.M. One way ANOVA or unpaired t test.
The working solution was stored at 4° C.
Data were expressed as mean±SEM. Proteins were quantified by Odyssey software and data were normalized to loading controls and then to the wildtype subunit protein, which was arbitrarily taken as 1 in each experiment. Fluorescence intensities from confocal microscopy experiments were determined using MetaMorph imaging software, and the measurements were carried out in ImageJ. For statistical significance, one-way or two-way analysis of variance (ANOVA) with post hoc Dunnett or Newman-Keuls test were used. In some cases, unpaired t-test or one sample t-test was performed (GraphPad Prism, La Jolla, CA), and statistical significance was taken as p<0.05.

O=C(O)CCCc1ccccc1 [PBA, 4-phenylbutyric acid]
GABA uptake activity vs. wildtype 0 (wildtype GAT-1; PBA 4 mM as printed): 1.24±0.09 | GABA uptake activity vs. wildtype 0 (wildtype GAT-1; PBA for 24 hrs): 1.24±0.05 | GABA uptake activity, concentration and time dependence (wildtype GAT-1; PBA 0 to 4 mM, 0 to 48 hrs): concentration and time dependently increased | cell loss (wildtype GAT-1; cells treated with PBA at 4 mM and/or 48 hrs): occasional cell loss | GAT-1 expression normalized to its own genotype DMSO treated (GAT-1 [1]; 24 hrs): 1.39±0.046 | total GAT-1 protein of the patient astrocytes as % of the corrected (GAT-1 [1]; 24 hrs (52.2% untreated)): 73.2% | GAT-1 expression vs. same brain region of vehicle treated mice taken as 1 (GAT-1 [2]): 1.03±0.03
